Patent publication US9457033B2, “Steroid alkaloids and uses thereof as antimicrobial agents against electron transport-deficient microbes and as potentiators for antimicrobial agents against pathogenic bacteria” (priority 2011, dated 2016)
In brackets after ≈: the same amount, converted by molar mass. Read-outs that look alike come from different tables or passages of the source.

How the values were obtained:
[1] = test system: S. aureus ATCC 29213; assay: MIC, microdilution in CAMHB 24 h, with or without tomatidine/compound; type: cell-based, Staphylococcus aureus; conditions: for MIC: Staphylococcus aureus
[2] = test system: S. aureus ATCC 29213; assay: Checkerboard assay, aminoglycoside and tomatidine; type: cell-based, Staphylococcus aureus; conditions: for MIC: Staphylococcus aureus, ATCC29213, checkerboard
Description: This checkerboard protocol (Eliopoulos and Moellering, 1996) was conducted by a microdilution method similar to that use for standard MICs determination. In 96 wells plates, antibiotics were loaded at a 4× concentration (where X is the maximal tested concentration) in well A1 and at a 2× concentration in the others wells of the column 1. Antibiotics were serially diluted 1:1 from the column 2 to column 10. […] Wells A12, B12, […] are positive untreated controls whereas wells […] are negative non-inoculated controls. […] The FIC index was calculated as follow (Eliopoulos and Moellering, 1996): FIC […]/MICB, where A and B are MICs of compounds A and B in combination and where MICA and MICB are the MICs of compound A alone and of compound B alone, respectively, and FICA and FICB are the FICs of compound A and of compound B, respectively.

[3] = test system: S. aureus 8325-4; assay: MIC, microdilution in CAMHB 24 h; type: cell-based, Staphylococcus aureus; conditions: 8325-4; for MIC: Staphylococcus aureus, 83254
[4] = test system: S. aureus Newbould; assay: MIC, microdilution in CAMHB 24 h; type: cell-based, Staphylococcus aureus; conditions: Newbould; for MIC: Staphylococcus aureus
[5] = test system: S. aureus SHY97-3906; assay: MIC, microdilution in CAMHB 24 h; type: cell-based, Staphylococcus aureus; conditions: for MIC: Staphylococcus aureus, SHY973906
[6] = test system: S. aureus ATCC 43300; assay: MIC, microdilution in CAMHB 24 h; type: cell-based, Staphylococcus aureus; conditions: ATCC 43300; for MIC: Staphylococcus aureus
[7] = test system: S. aureus N315; assay: microbe, parasite or virus in culture; type: cell-based, Staphylococcus aureus; conditions: for MIC: Staphylococcus aureus
[8] = test system: S. aureus MA078038; assay: MIC, microdilution in CAMHB 24 h; type: cell-based, Staphylococcus aureus; conditions: for MIC: Staphylococcus aureus
[9] = test system: S. aureus MRSA COL; assay: MIC, microdilution in CAMHB 24 h; type: cell-based, Staphylococcus aureus; conditions: MRSA COL; for MIC: Staphylococcus aureus
[10] = test system: S. aureus Mu50; assay: MIC, microdilution in CAMHB 24 h; type: cell-based, Staphylococcus aureus; conditions: for MIC: Staphylococcus aureus
[11] = test system: S. aureus Sa228c; assay: MIC, microdilution in CAMHB 24 h; type: cell-based, Staphylococcus aureus; conditions: for MIC: Staphylococcus aureus
[12] = test system: S. aureus CF1A-L; assay: MIC, microdilution in CAMHB 24 h; type: cell-based, Staphylococcus aureus; conditions: CF1A-L; for MIC: Staphylococcus aureus, CF1AL
[13] = test system: S. aureus CF2A-L; assay: MIC, microdilution in CAMHB 24 h; type: cell-based; conditions: CF2A-L; for MIC: Staphylococcus aureus, CF2AL
[14] = test system: S. aureus CF6B-L; assay: MIC, microdilution in CAMHB 24 h; type: cell-based, Staphylococcus aureus; conditions: CF6B-L; for MIC: Staphylococcus aureus, CF6BL
[15] = test system: S. aureus CF8E-L; assay: MIC, microdilution in CAMHB 24 h; type: cell-based, Staphylococcus aureus; conditions: CF8E-L; for MIC: Staphylococcus aureus, CF8EL
[16] = test system: S. aureus CF9A-L; assay: MIC, microdilution in CAMHB 24 h; type: cell-based, Staphylococcus aureus; conditions: CF9A-L; for MIC: Staphylococcus aureus
[17] = test system: S. aureus CF35A-L; assay: MIC, microdilution in CAMHB 24 h; type: cell-based, Staphylococcus aureus; conditions: CF35A-L; for MIC: Staphylococcus aureus
[18] = test system: S. aureus CF07-L; assay: MIC, microdilution in CAMHB 24 h; type: cell-based, Staphylococcus aureus; conditions: CF07-L; for MIC: Staphylococcus aureus, CF07L
[19] = 8 μg/ml of tomatidine, read-out: MIC +TO
[20] = absence of tomatidine, read-out: MIC −TO
[21] = Human (CF lungs), read-out: MIC
[22] = Human (CF lungs), MRSA, read-out: MIC

NC[C@H]1O[C@H](O[C@H]2[C@H](O)[C@@H](O[C@H]3O[C@H](CO)[C@@H](O)[C@H](N)[C@H]3O)[C@H](N)C[C@@H]2N)[C@H](O)[C@@H](O)[C@@H]1O [Kanamycin, kanamycin]
Fold (−TO/+TO) ([1]; ATCC 29123, 8 μg/ml of tomatidine): 4-8 fold
Fold (−TO/+TO) ([1]; ATCC 29213, tomatidine at 8 μg/ml): 4-8 fold
MIC ([1]; ATCC 29123 / ATCC 29213, ATCC 29123, 8 μg/ml of tomatidine, read-out: MIC +TO): 0.5 µg/mL (≈ 1.03 µM)
MIC ([1]; ATCC 29123 / ATCC 29213, ATCC 29123, absence of tomatidine, read-out: MIC −TO): 2 to 4 µg/mL (≈ 4.13 to 8.26 µM)
MIC ([1]; ATCC29213, ATCC 29213, Human (SSTI), read-out: MIC): 2 to 4 µg/mL (≈ 4.13 to 8.26 µM)
MIC ([1]; ATCC29213, ATCC 29213, absence of tomatidine, read-out: MIC −TO): 2 to 4 µg/mL (≈ 4.13 to 8.26 µM)
MIC ([1]; ATCC29213, ATCC 29213, presence of tomatidine at 8 μg/ml, read-out: MIC +TO): 0.5 µg/mL
MIC ([2]; tomatidine 0 μg/ml): 2 to 4 µg/mL
MIC ([2]; tomatidine 0.06 μg/ml): 2 µg/mL
MIC ([2]; tomatidine 0.12 μg/ml): 0.5 to 1 µg/mL
MIC ([2]; tomatidine 0.25 μg/ml): 0.5 µg/mL
MIC ([2]; tomatidine 0.5 μg/ml): 0.5 µg/mL
MIC ([2]; tomatidine 1 μg/ml): 0.5 to 1 µg/mL
MIC ([2]; tomatidine 2 μg/ml): 0.25 to 0.5 µg/mL
MIC ([2]; tomatidine 4 μg/ml): 0.5 µg/mL
MIC ([2]; tomatidine 8 μg/ml): 0.5 µg/mL
FIC index ([2]; aminoglycoside with tomatidine, tomatidine MIC considered 32 μg/ml, values overestimated): ≦0.193
Fold (−TO/+TO) ([3]; 8 μg/ml of tomatidine): 2-4 fold
MIC [3, 19]: 0.5 to 4 µg/mL (≈ 1.03 to 8.26 µM)
MIC ([3]; Laboratory strain, read-out: MIC): 2 to 8 µg/mL (≈ 4.13 to 16.5 µM)
MIC [3, 20]: 2 to 8 µg/mL (≈ 4.13 to 16.5 µM)
Fold (−TO/+TO) ([4]; 8 μg/ml of tomatidine): 8 fold
MIC [4, 19]: 0.5 µg/mL (≈ 1.03 µM)
MIC ([4]; Cow (mastitis), read-out: MIC): 4 µg/mL (≈ 8.26 µM)
MIC [4, 20]: 4 µg/mL (≈ 8.26 µM)
Fold (−TO/+TO) ([5]; SHY-3906, 8 μg/ml of tomatidine): 4 fold
MIC ([5]; SHY97-3906, Cow (mastitis), read-out: MIC): 2 µg/mL (≈ 4.13 µM)
MIC ([5]; SHY-3906, 8 μg/ml of tomatidine, read-out: MIC +TO): 0.5 µg/mL (≈ 1.03 µM)
MIC ([5]; SHY-3906, absence of tomatidine, read-out: MIC −TO): 2 µg/mL (≈ 4.13 µM)
Fold (−TO/+TO) ([6]; 8 μg/ml of tomatidine): 2-4 fold
MIC ([6]; ATCC 43300 / MRSA, Human (HA), MRSA, read-out: MIC): 512 to 1020 µg/mL (≈ 1060 to 2110 µM)
MIC ([6]; ATCC43300, 8 μg/ml of tomatidine, read-out: MIC +TO): 256 µg/mL (≈ 528 µM)
MIC ([6]; ATCC43300, absence of tomatidine, read-out: MIC −TO): 512 to 1020 µg/mL (≈ 1060 to 2110 µM)
Fold (−TO/+TO) ([7]; N315, 8 μg/ml of tomatidine): 4 fold
MIC ([7]; N315, read-out: MIC +TO): 64 µg/mL (≈ 132 µM)
MIC ([7]; N315, read-out: MIC −TO): 256 µg/mL (≈ 528 µM)
Fold (−TO/+TO) ([8]; MA078038, 8 μg/ml of tomatidine): >1 fold
MIC ([8]; MA078038, aph(3′)-IIIa, 8 μg/ml of tomatidine, read-out: MIC +TO): 1020 µg/mL (≈ 2110 µM)
MIC ([8]; MA078038, aph(3′)-IIIa, absence of tomatidine, read-out: MIC −TO): > 1020 µg/mL
MIC ([8]; MA078038, Human (CA), MRSA, read-out: MIC): > 1020 µg/mL
Fold (−TO/+TO) ([9]; 8 μg/ml of tomatidine): 8 fold
MIC [9, 19]: 0.5 µg/mL (≈ 1.03 µM)
MIC ([9]; Human (SSTI), read-out: MIC): 4 µg/mL (≈ 8.26 µM)
MIC [9, 20]: 4 µg/mL (≈ 8.26 µM)
Fold (−TO/+TO) ([10]; Mu50, 8 μg/ml of tomatidine): >2-4 fold
MIC ([10]; Mu50, aac(6′)-aph(2″), ant(4′)-Ia, 8 μg/ml of tomatidine, read-out: MIC +TO): 256 to 512 µg/mL (≈ 528 to 1060 µM)
MIC ([10]; Mu50, aac(6′)-aph(2″), ant(4′)-Ia, absence of tomatidine, read-out: MIC −TO): > 1020 µg/mL
MIC ([10]; Mu50, Human (SSTI), MRSA, VISA, read-out: MIC): > 1020 µg/mL
Fold (−TO/+TO) ([11]; Sa228c, 8 μg/ml of tomatidine): 2-8 fold
MIC ([11]; MRSA): 512 to 1020 µg/mL (≈ 1060 to 2110 µM)
MIC ([11]; SA228C, read-out: MIC +TO): 128 to 256 µg/mL (≈ 264 to 528 µM)
MIC ([11]; SA228C, read-out: MIC −TO): 512 to 1020 µg/mL (≈ 1060 to 2110 µM)
Fold (−TO/+TO) ([12]; 8 μg/ml of tomatidine): 8 fold
MIC [12, 19]: 0.5 µg/mL (≈ 1.03 µM)
MIC [12, 21]: 4 µg/mL (≈ 8.26 µM)
MIC [12, 20]: 4 µg/mL (≈ 8.26 µM)
Fold (−TO/+TO) ([13]; 8 μg/ml of tomatidine): 8 fold
MIC [13, 19]: 0.5 µg/mL (≈ 1.03 µM)
MIC [13, 21]: 4 µg/mL (≈ 8.26 µM)
MIC [13, 20]: 4 µg/mL (≈ 8.26 µM)
Fold (−TO/+TO) ([14]; 8 μg/ml of tomatidine): 4-8 fold
MIC ([14]; aac(6′)-aph(2″), 8 μg/ml of tomatidine, read-out: MIC +TO): 128 to 256 µg/mL (≈ 264 to 528 µM)
MIC ([14]; aac(6′)-aph(2″), absence of tomatidine, read-out: MIC −TO): 1020 µg/mL (≈ 2110 µM)
MIC [14, 21]: 1020 µg/mL (≈ 2110 µM)
Fold (−TO/+TO) ([15]; 8 μg/ml of tomatidine): 2-4 fold
MIC [15, 19]: 2 to 8 µg/mL (≈ 4.13 to 16.5 µM)
MIC [15, 21]: 16 µg/mL (≈ 33 µM)
MIC [15, 20]: 16 µg/mL (≈ 33 µM)
Fold (−TO/+TO) ([16]; 8 μg/ml of tomatidine): 1-2 fold
MIC ([16]; CF9AL, ant(4′)-Ia, 8 μg/ml of tomatidine, read-out: MIC +TO): 128 to 256 µg/mL (≈ 264 to 528 µM)
MIC ([16]; CF9AL, ant(4′)-Ia, absence of tomatidine, read-out: MIC −TO): 256 µg/mL (≈ 528 µM)
MIC [16, 22]: 256 µg/mL (≈ 528 µM)
Fold (−TO/+TO) ([17]; 8 μg/ml of tomatidine): 4 fold
MIC ([17]; CF35AL, 8 μg/ml of tomatidine, read-out: MIC +TO): 1 µg/mL (≈ 2.06 µM)
MIC ([17]; CF35AL, absence of tomatidine, read-out: MIC −TO): 4 µg/mL (≈ 8.26 µM)
MIC [17, 22]: 4 µg/mL (≈ 8.26 µM)
Fold (−TO/+TO) ([18]; 8 μg/ml of tomatidine): 4-8 fold
MIC [18, 19]: 0.5 to 1 µg/mL (≈ 1.03 to 2.06 µM)
MIC [18, 21]: 4 µg/mL (≈ 8.26 µM)
MIC [18, 20]: 4 µg/mL (≈ 8.26 µM)
